According to ChEMBL document CHEMBL5465560, “Selectivity Literature for EUbOPEN Chemogenomic Library” (2024):
pIC50: −log10 of the molar value. Values belong to the compound of their own block, whether it stands above or below them.

Key:
[1] = molecular target: T1, Cyclin-G-associated kinase (Homo sapiens) (UniProt O14976); settings: at 10 µM
T1 sequence (whole entry): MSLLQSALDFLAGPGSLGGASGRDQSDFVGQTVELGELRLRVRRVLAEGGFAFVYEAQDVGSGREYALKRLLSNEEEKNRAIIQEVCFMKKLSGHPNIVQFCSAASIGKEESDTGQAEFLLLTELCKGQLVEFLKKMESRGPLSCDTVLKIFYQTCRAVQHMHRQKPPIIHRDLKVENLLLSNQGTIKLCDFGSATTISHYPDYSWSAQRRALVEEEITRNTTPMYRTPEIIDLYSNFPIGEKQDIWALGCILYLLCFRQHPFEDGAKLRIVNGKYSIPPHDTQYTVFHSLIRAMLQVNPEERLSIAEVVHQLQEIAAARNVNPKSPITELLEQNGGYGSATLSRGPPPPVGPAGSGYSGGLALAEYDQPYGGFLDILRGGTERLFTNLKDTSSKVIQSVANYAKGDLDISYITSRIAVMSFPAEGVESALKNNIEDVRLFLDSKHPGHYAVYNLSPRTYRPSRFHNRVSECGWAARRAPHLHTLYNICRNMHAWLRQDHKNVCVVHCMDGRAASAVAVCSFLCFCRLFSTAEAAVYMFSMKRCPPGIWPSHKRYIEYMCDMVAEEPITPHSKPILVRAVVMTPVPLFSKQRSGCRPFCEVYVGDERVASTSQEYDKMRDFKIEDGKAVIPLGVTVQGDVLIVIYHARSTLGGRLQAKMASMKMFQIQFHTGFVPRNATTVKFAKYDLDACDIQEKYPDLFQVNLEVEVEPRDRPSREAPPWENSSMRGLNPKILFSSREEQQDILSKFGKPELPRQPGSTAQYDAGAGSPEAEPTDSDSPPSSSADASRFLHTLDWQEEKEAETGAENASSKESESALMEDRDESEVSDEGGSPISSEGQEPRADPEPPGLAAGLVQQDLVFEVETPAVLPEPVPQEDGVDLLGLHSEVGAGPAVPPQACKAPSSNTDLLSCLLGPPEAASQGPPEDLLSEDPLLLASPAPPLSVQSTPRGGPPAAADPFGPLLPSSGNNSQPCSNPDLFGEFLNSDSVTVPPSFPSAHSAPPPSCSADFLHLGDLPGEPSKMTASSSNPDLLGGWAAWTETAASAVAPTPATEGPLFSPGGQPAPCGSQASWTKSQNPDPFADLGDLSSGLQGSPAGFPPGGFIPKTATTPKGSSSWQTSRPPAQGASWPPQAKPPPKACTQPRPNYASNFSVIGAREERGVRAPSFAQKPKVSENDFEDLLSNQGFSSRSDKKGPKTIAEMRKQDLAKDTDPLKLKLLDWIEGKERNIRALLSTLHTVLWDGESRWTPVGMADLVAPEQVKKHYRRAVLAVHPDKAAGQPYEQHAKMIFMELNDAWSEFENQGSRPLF

[2] = molecular target: T2, NUAK family SNF1-like kinase 2 (Homo sapiens) (UniProt Q9H093); assay: Selectivity interaction (KinomeScan (DiscoverX)) EUB0001079a NUAK2; settings: at 1 µM
T2 sequence (whole entry): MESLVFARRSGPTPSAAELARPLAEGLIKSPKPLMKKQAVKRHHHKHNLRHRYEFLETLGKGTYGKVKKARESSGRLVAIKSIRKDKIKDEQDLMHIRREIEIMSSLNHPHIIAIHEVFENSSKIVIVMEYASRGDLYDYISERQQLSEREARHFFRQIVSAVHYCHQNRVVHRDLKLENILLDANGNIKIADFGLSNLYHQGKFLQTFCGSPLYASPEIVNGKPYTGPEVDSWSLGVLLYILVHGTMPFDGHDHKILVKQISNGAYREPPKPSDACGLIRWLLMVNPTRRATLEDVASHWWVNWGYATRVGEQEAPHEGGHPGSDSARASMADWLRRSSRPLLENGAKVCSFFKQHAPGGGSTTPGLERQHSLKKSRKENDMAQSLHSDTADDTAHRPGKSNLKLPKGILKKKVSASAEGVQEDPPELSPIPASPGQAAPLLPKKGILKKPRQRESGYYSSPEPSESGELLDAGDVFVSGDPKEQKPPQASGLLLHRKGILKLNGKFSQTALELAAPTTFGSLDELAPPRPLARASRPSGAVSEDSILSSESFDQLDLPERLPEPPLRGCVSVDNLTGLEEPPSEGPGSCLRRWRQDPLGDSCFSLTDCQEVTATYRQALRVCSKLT

[3] = molecular target: Death-associated protein kinase 3 (Homo sapiens) (UniProt O43293); assay: Selectivity interaction (KinomeScan (DiscoverX)) EUB0001619a DAPK3; settings: at 1 µM
[4] = molecular target: Cyclin-dependent kinase 18 (Homo sapiens) (UniProt Q07002); assay: Selectivity interaction (KinomeScan (DiscoverX)) EUB0000045b CDK18
[5] = molecular target: Ribosomal protein S6 kinase alpha-4 (Homo sapiens) (UniProt O75676); assay: Selectivity interaction (KinomeScan (DiscoverX)) EUB0000595a RPS6KA4; settings: at 10 µM
[6] = molecular target: Casein kinase II subunit alpha (Homo sapiens, UniProt P68400); assay: Selectivity interaction (Kinase panel (Enzyme activity assay)) EUB0000612a CSNK2A1
Sequence of Casein kinase II subunit alpha (P68400 whole entry): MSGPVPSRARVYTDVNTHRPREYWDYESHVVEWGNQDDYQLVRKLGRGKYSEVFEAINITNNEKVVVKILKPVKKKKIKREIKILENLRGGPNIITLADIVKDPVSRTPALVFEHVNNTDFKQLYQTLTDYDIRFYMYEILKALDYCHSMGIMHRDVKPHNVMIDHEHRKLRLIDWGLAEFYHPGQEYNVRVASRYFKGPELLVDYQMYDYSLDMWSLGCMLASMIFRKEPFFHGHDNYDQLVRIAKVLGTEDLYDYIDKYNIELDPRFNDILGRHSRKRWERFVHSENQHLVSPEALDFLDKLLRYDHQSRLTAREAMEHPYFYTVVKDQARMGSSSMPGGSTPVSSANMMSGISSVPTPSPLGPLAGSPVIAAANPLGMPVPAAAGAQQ

Sequence of Cyclin-dependent kinase 18 (Homo sapiens) (Q07002 whole entry): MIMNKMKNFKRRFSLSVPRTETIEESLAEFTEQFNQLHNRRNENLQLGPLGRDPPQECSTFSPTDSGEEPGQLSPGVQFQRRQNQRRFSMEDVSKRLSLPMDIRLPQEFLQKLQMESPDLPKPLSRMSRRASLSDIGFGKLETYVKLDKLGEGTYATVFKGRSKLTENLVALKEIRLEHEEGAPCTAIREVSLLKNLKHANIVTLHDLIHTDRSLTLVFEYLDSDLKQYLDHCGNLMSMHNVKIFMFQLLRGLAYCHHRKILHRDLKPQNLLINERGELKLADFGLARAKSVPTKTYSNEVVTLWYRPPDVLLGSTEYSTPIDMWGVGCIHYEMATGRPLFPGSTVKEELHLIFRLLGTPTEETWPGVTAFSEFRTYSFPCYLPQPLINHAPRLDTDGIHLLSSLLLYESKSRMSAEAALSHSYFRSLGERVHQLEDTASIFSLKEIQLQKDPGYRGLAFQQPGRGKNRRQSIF
Sequence of Ribosomal protein S6 kinase alpha-4 (Homo sapiens) (O75676 whole entry, looked up): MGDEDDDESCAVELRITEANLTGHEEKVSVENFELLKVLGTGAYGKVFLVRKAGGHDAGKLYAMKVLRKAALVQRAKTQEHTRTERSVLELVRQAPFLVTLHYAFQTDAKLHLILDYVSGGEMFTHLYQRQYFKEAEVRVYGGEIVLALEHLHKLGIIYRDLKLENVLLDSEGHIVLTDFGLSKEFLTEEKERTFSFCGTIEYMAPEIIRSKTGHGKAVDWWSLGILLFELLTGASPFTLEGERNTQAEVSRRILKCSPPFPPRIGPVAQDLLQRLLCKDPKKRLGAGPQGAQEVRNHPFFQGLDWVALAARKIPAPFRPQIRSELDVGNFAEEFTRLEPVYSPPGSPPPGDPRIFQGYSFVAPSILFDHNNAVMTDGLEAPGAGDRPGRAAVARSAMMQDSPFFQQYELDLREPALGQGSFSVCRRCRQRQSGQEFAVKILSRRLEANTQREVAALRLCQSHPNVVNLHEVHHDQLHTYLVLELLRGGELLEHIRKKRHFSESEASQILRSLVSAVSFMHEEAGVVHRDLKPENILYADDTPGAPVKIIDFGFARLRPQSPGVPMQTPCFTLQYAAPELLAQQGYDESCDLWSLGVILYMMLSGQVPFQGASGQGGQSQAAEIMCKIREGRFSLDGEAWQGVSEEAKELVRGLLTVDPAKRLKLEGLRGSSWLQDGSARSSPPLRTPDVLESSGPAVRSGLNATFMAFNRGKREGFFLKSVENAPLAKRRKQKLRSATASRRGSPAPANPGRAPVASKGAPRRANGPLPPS
Sequence of Death-associated protein kinase 3 (Homo sapiens) (O43293 whole entry, looked up): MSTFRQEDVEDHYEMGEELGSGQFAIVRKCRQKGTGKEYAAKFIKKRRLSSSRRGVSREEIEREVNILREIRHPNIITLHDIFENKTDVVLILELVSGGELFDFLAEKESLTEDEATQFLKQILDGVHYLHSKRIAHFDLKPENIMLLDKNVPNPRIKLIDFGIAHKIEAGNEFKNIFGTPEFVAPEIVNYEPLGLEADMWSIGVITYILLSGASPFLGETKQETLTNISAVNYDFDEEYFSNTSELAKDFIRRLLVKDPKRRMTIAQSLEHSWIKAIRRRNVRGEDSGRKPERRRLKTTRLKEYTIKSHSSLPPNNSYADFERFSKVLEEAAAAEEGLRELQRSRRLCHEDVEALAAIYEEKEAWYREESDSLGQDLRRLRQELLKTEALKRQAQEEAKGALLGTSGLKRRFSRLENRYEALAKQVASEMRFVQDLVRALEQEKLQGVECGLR

- % of control [1]: 100%
Structure (SMILES): CCN(CC)CCCCNc1ncc2cc(-c3cc(OC)cc(OC)c3)c(NC(=O)NC(C)(C)C)nc2n1

Structure (SMILES): Nc1cnc(N2CCc3cc(S(=O)(=O)Nc4c(F)cc(Cl)cc4F)cc(N4CCCC4=O)c32)nc1 [TP-020n]
- % of control [2]: 100%

Structure (SMILES): N#Cc1cccc(-c2c[nH]c3ncnc(N4CCOCC4)c23)c1
- % of control [3]: 100%

Structure (SMILES): C=CC(=O)Nc1cc(-n2c(=O)ccc3cnc4ccc(-c5ccc(NS(C)(=O)=O)cc5)cc4c32)ccc1C
- % of control ([4]; at 1 µM): 83%
- % of control ([4]; at 10 µM): 88%

Structure (SMILES): COCC(=O)NC/C=C/c1ccc2ncnc(Nc3ccc(Oc4ccc(C)nc4)c(C)c3)c2c1 [CP-724714]
- % of control [5]: 100%

- pIC50 [6]: 5.24
Structure (SMILES): CCc1cccc(CC)c1NC(=O)c1nn(C)c2c1CCc1cnc(Nc3ccc(C(=O)NC4CCN(C)CC4)cc3OC(F)(F)F)nc1-2
